Source: PubChem BioAssay (NCI)
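Where inhibition never reached the appropriate level, the endpoint shown equals the highest concentration tested. Otherwise, values were interpolated linearly from a five-concentration, 48-hour dose response in 96-well plates. GI50 marks 50% less growth. TGI is the concentration that stops growth completely.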

What was measured:
Experiment in all cases: NCI tumour cell line growth inhibition, 48 h
OVCAR-5 ovarian = system: OVCAR-5 ovarian
CAKI-1 renal = system: CAKI-1 renal
DU-145 prostate = system: DU-145 prostate
HOP-92 NSCLC = system: HOP-92 NSCLC
LOX IMVI melanoma = system: LOX IMVI melanoma
NCI-H522 lung = system: NCI-H522 lung
UACC-257 melanoma = system: UACC-257 melanoma
RXF 393 renal = system: RXF 393 renal
PC-3 prostate = system: PC-3 prostate
SW-620 colon = system: SW-620 colon
M14 melanoma = system: M14 melanoma
OVCAR-8 ovarian = system: OVCAR-8 ovarian
A498 renal = system: A498 renal
UACC-62 melanoma = system: UACC-62 melanoma
786-0 renal = system: 786-0 renal
ACHN renal = system: ACHN renal
EKVX NSCLC = system: EKVX NSCLC
HOP-62 NSCLC = system: HOP-62 NSCLC
SK-MEL-28 melanoma = system: SK-MEL-28 melanoma
NCI/ADR-RES ovarian = system: NCI/ADR-RES ovarian
COLO 205 colon = system: COLO 205 colon
TK-10 renal = system: TK-10 renal
HS 578T breast = system: HS 578T breast
BT-549 breast = system: BT-549 breast
SK-OV-3 ovarian = system: SK-OV-3 ovarian
SN12C renal = system: SN12C renal
RPMI-8226 leukemia = system: RPMI-8226 leukemia
SK-MEL-5 melanoma = system: SK-MEL-5 melanoma
NCI-H226 lung = system: NCI-H226 lung
SK-MEL-2 melanoma = system: SK-MEL-2 melanoma
HCT-116 colon = system: HCT-116 colon
SF-539 CNS = system: SF-539 CNS
IGROV1 ovarian = system: IGROV1 ovarian
SF-295 CNS = system: SF-295 CNS
OVCAR-4 ovarian = system: OVCAR-4 ovarian
UO-31 renal = system: UO-31 renal
SNB-75 CNS = system: SNB-75 CNS
MDA-MB-435 = system: MDA-MB-435
NCI-H460 lung = system: NCI-H460 lung
SF-268 CNS = system: SF-268 CNS
T-47D breast = system: T-47D breast
SNB-19 CNS = system: SNB-19 CNS

Compound: OC1CCN(CCCOc2c3ccccc3nc3c2oc2ccc(Cl)cc23)CC1
- GI50 (OVCAR-5 ovarian): 1.71 µM
- TGI (OVCAR-5 ovarian): 6.04 µM
- GI50 (CAKI-1 renal): 0.71 µM
- TGI (CAKI-1 renal): 2.29 µM
- GI50 (DU-145 prostate): 1.06 µM
- TGI (DU-145 prostate): 3.57 µM
- GI50 (HOP-92 NSCLC): 0.713 µM
- TGI (HOP-92 NSCLC): 5.04 µM
- GI50 (LOX IMVI melanoma): 0.372 µM
- TGI (LOX IMVI melanoma): 1.52 µM
- GI50 (NCI-H522 lung): 1.11 µM
- TGI (NCI-H522 lung): 2.73 µM
- GI50 (UACC-257 melanoma): 1.75 µM
- TGI (UACC-257 melanoma): 3.53 µM
- GI50 (RXF 393 renal): 1.02 µM
- TGI (RXF 393 renal): 2.31 µM
- GI50 (PC-3 prostate): 1.28 µM
- TGI (PC-3 prostate): 4.04 µM
- GI50 (SW-620 colon): 0.444 µM
- TGI (SW-620 colon): 2.09 µM
- GI50 (M14 melanoma): 1.45 µM
- TGI (M14 melanoma): 3.69 µM
- GI50 (OVCAR-8 ovarian): 0.991 µM
- TGI (OVCAR-8 ovarian): 11.9 µM
- GI50 (A498 renal): 2.53 µM
- TGI (A498 renal): 7.59 µM
- GI50 (UACC-62 melanoma): 1.99 µM
- TGI (UACC-62 melanoma): 4.82 µM
- GI50 (786-0 renal): 1.08 µM
- TGI (786-0 renal): 3.61 µM
- GI50 (ACHN renal): 0.534 µM
- TGI (ACHN renal): 10.3 µM
- GI50 (EKVX NSCLC): 2.41 µM
- TGI (EKVX NSCLC): 13.2 µM
- GI50 (HOP-62 NSCLC): 1.74 µM
- TGI (HOP-62 NSCLC): 7.57 µM
- GI50 (SK-MEL-28 melanoma): 1.64 µM
- TGI (SK-MEL-28 melanoma): 3.1 µM
- GI50 (NCI/ADR-RES ovarian): 0.579 µM
- TGI (NCI/ADR-RES ovarian): 4.91 µM
- GI50 (COLO 205 colon): 0.755 µM
- TGI (COLO 205 colon): 2.21 µM
- GI50 (TK-10 renal): 2.75 µM
- TGI (TK-10 renal): 18.3 µM
- GI50 (HS 578T breast): 2.28 µM
- TGI (HS 578T breast): 13.4 µM
- GI50 (BT-549 breast): 3.04 µM
- TGI (BT-549 breast): 10.1 µM
- GI50 (SK-OV-3 ovarian): 2.42 µM
- TGI (SK-OV-3 ovarian): 7.07 µM
- GI50 (SN12C renal): 0.883 µM
- TGI (SN12C renal): 17.2 µM
- GI50 (RPMI-8226 leukemia): 1.33 µM
- TGI (RPMI-8226 leukemia): 4.03 µM
- GI50 (SK-MEL-5 melanoma): 1.78 µM
- TGI (SK-MEL-5 melanoma): 3.25 µM
- GI50 (NCI-H226 lung): 1.72 µM
- TGI (NCI-H226 lung): 3.75 µM
- GI50 (SK-MEL-2 melanoma): 2.45 µM
- TGI (SK-MEL-2 melanoma): 5.99 µM
- GI50 (HCT-116 colon): 0.414 µM
- TGI (HCT-116 colon): 2.36 µM
- GI50 (SF-539 CNS): 1.07 µM
- TGI (SF-539 CNS): 2.3 µM
- GI50 (IGROV1 ovarian): 1.25 µM
- TGI (IGROV1 ovarian): 6.28 µM
- GI50 (SF-295 CNS): 1.49 µM
- TGI (SF-295 CNS): 6.45 µM
- GI50 (OVCAR-4 ovarian): 1.23 µM
- TGI (OVCAR-4 ovarian): 3.66 µM
- GI50 (UO-31 renal): 1.23 µM
- TGI (UO-31 renal): 3.29 µM
- GI50 (SNB-75 CNS): 1.97 µM
- TGI (SNB-75 CNS): 10.9 µM
- GI50 (MDA-MB-435): 1.23 µM
- TGI (MDA-MB-435): 2.56 µM
- GI50 (NCI-H460 lung): 0.44 µM
- TGI (NCI-H460 lung): 1.85 µM
- GI50 (SF-268 CNS): 1.08 µM
- TGI (SF-268 CNS): 10 µM
- GI50 (T-47D breast): 3.54 µM
- TGI (T-47D breast): 20.7 µM
- GI50 (SNB-19 CNS): 1.4 µM
- TGI (SNB-19 CNS): 18.2 µM
